What was measured:
[1] = system: P1 promoter region of the human Runx2 gene; test: RUNX2 P1 promoter luciferase reporter assay in BMP-2-induced C3H10T1/2 stable expression strain (primary, secondary, tertiary screening); format: cell-based; conditions: five times of screening (N=6/time); average of 5 times or even at once
Excerpt: Existing drugs which increase the promoter activity of the transcription factor Runx2 were exhaustively searched by luciferase assay. Firstly, the P1 promoter region of the human Runx2 gene was inserted into the multiple cloning site of the pGL4 luciferase reporter vector (Promega K.K.) (pGL4.10 vector). The pGL4.10 vector was transfected into the undifferentiated mouse mesenchymal cell line C3H10T1/2, and selectively cultured on a G418-containing medium, thereby establishing the stable expression strain. The cells were seeded on a 96-well (day 1), and human BMP-2 was added to each well on day 2, thereby inducing differentiation into osteoblasts. On the following day, the test compounds (10 μM) composing Prestwick Chemical Library (registered trademark) (Prestwick Chemical Ltd.) were added, and the cells were collected 24 hours after, and subjected to luciferase assay.
In addition to the compounds which made the reporter activity of luciferase (average of 5 times) 1.5 times that of the control, those made the activity 1.5 times than that of the control even at once were selected.

luciferase protein = test: double luciferase assay, pGL4.10 basic vector and phRL vector cotransfected into C3H10T1/2 cells; format: cell-based; conditions: pGL4.10 [luc2/SV40] basic vector and phRL [hRluc/TK] vector
Experimental: In order to exclude the possibility of the potential agent to increase the enzymatic activity of luciferase protein, the pGL4. 10 basic vector (pGL4.10 [luc2/SV40] basic vector) and phRLvector (phRL [hRluc/TK] vector) were cotransfected into the C3H10T1/2 cells, the potential agents were individually added, and double luciferase assay was performed.

[2] = system: P1 promoter region of the human Runx2 gene; test: RUNX2 P1 promoter luciferase reporter assay in BMP-2-induced C3H10T1/2 stable expression strain (primary, secondary, tertiary screening); format: cell-based; conditions: three times of screening (N=6/time) at 8 levels of concentration
Runx2 gene [3] = test: Runx2 gene expression by quantitative PCR in HOS cells; format: cell-based, human; conditions: PPI cultured for 24 hours, FIG. 1
Experimental: (§1) Human osteogenic sarcoma cells (HOSs) and the C3H10T1/2 cells were used in the experiment. Firstly, the cells (HOS or C3H10T1/2) were seeded on a 12-well plate (day 1). When the C3H10T1/2 cells were used, the human BMP-2 was added to each well on the following day. On day 3, PPI (rabeprazole or lansoprazole) was added and cultured for 24 hours, and the cells were collected. Total RNAs were prepared from the collected cells, and the expression of the Runx2 gene was analyzed by the quantitative PCR method.

Runx2 gene [4] = test: Runx2 gene expression by quantitative PCR in BMP-2-induced C3H10T1/2 cells; format: cell-based, mouse; conditions: C3H10T1/2 cells differentiated by BMP-2; PPI cultured for 24 hours; FIG. 2
Experimental: as §1

Runx2 protein [5] = test: Runx2 protein expression by Western blot in HOS cells; format: cell-based, human; conditions: 48 hours and 78 hours after the addition of PPI, relative to Gapdh, FIGS. 3 and 4
Experimental: as §1
(§2) Using the HOS cells and the C3H10T1/2 cells cultured in the same manner as in 4-1, and the expression level of the Runx2 protein and the ALP activity which is the index of bone differentiation were evaluated over time. The expression level of the Runx2 protein was evaluated by the Western blot test, and the ALP activity was measured by the ELISA method.

Runx2 protein [6] = test: Runx2 protein expression by Western blot in BMP-2-induced C3H10T1/2 cells; format: cell-based, mouse; conditions: C3H10T1/2 cells differentiated by BMP-2; 48 hours and 78 hours after the addition of PPI; relative to Gapdh; FIGS. 5 and 6
Experimental: as §1, §2

[7] = system: alkaline phosphatase (ALP) activity; test: ALP activity by ELISA in HOS cells; format: cell-based, human; conditions: day 6 after the addition of PPI, FIG. 7
Experimental: as §1, §2

[8] = system: alkaline phosphatase (ALP) activity; test: ALP activity by ELISA in BMP-2-induced C3H10T1/2 cells; format: cell-based, mouse; conditions: day 5 after the addition of PPI, FIG. 8
Experimental: as §1, §2

Runx2 gene [9] = test: Runx2 gene expression in rat cultured bone marrow mesenchymal cells; format: cell-based; conditions: bone-inducing media, P1, P2, P3, 24 hours after the addition of PPI, FIG. 9
Experimental: Mesenchymal cells were prepared from a rat bone marrow solution, and cultured (cultured bone marrow mesenchymal cells). Subsequently, the cells were subcultivated (P1, P2, and P3) in bone-inducing media (dexamethasone, β-glycerophosphoric acid, and ascorbic acid were added the culture media). PPI was added when each of the P1, P2, and P3 reached confluent. The cells were collected 24 hours after the addition of PPI, and the expression of the Runx2 gene was analyzed in the same manner as in 4-1.

Runx2 gene [10] = test: Runx2 gene expression in human bone marrow mesenchymal stem cells; format: cell-based; conditions: PPI-containing bone-inducing media, P0, P1, P2, FIG. 10
Experimental: On the other hand, the human bone marrow mesenchymal stem cells (POIETICS (registered trademark), Lonza Ltd.) were subjected to primary culture (P0) and subcultivation (P1, P2) in the PPI-containing bone-inducing media (culture media containing PPI, dexamethasone, β-glycerophosphoric acid, and ascorbic acid). The bone-inducing medium was replaced every three days. The cells were collected when each of P0, P1, and P2 reached confluent, and the expression of the Runx2 gene was analyzed in the same manner as in 4-1.

rat femur defect model = test: rat femur defect model, soft X-ray; format: in vivo; conditions: SD rat femur 3 mm defect, ad libitum oral administration
Excerpt: The left hind femur of an SD rat (male, 9 weeks old) was exposed by anterolateral approach, and an external fixator was installed. The diaphysis was cut by an oscillating saw, (defect amount 3 mm), and the bone was elongated in a single stage, and used as a bone defect model (defect group N=6, control group N=6). Lansoprazole was given to the bone defect model by ad libitum oral administration (about 10 to 20 times the usual human dose), and the bone defect part was photographed periodically by soft X-ray. In addition, the body weight and drinking water amount were periodically measured.

secondary screening: reporter activity of luciferase 1.5 times that of the control [1] | tertiary screening: concentration dependency of the promotion of RUNX2 promoter activity [2] | Compound | specificity of RUNX2 promoter promotion versus increase of luciferase activity (luciferase protein) | further results
selected | concentration dependency | COc1ccc2cc(CCC(C)=O)ccc2c1 [nabumetone, 4-(6-methoxynaphthalen-2-yl)butan-2-one] | specifically promote the RUNX2 promoter activity | 
selected |  | O=C(O)CCNC(=O)c1ccc(/N=N/c2ccc(O)c(C(=O)O)c2)cc1 [balsalazide sodium, disodium (3Z)-3-[[4-(2-carboxylatoethylcarbamoyl)phenyl]hydrazinylidene]-6-oxocyclohexa-1,4-diene-1-carboxylate dehydrate] |  | 
selected |  | Cl.Nc1ccc(N=Nc2ccccc2)c(N)n1 [phenazopyridine hydrochloride, 3-phenyldiazenylpyridine-2,6-diamine hydrochloride] |  | 
selected |  | O=c1cc(-c2ccc(O)c(O)c2)oc2cc(O)cc(O)c12 [luteolin, 2-(3,4-dihydroxyphenyl)-5,7-dihydroxychromen-4-one] |  | 
selected | concentration dependency | CC(C(=O)O)c1ccc(C(=O)c2ccccc2)s1 (stereo not shown) [tiaprofenic acid, 2-(5-benzoylthiophen-2-yl)propanoic acid] | specifically promote the RUNX2 promoter activity | 
selected |  | COC(=O)Nc1nc2ccc(SC(C)C)cc2[nH]1 [methiazole, methyl n-(6-propan-2-ylsulfanyl-1H-benzimidazol-2-yl) carbamate] |  | 
selected | concentration dependency | COCCCOc1ccnc(C[S+]([O-])c2nc3ccccc3[nH]2)c1C (stereo not shown) [rabeprazole, 2-[[4-(3-methoxypropoxy)-3-methylpyridin-2-yl]methylsulfinyl]-1H-benzimidazole] | specifically promote the RUNX2 promoter activity | induction of expression of the Runx2 gene (Runx2 gene [3]): concentration-dependent activity of inducing the expression of the Runx2 gene; induction of expression of the Runx2 gene (Runx2 gene [4]): concentration-dependent activity of inducing the expression of the Runx2 gene; Runx2 protein expression level (Runx2 protein [5]): expression inducing effect; Runx2 protein expression level (Runx2 protein [6]): expression inducing effect; ALP activity [7]: increase effect; ALP activity [8]: increase effect; induction of the expression of the Runx2 gene (Runx2 gene [9]): expression inducing effect; induction of the expression of the Runx2 gene (Runx2 gene [10]): expression inducing effect
selected | concentration dependency | Cc1oncc1C(=O)Nc1ccc(C(F)(F)F)cc1 [leflunomide, 5-methyl-N-[4-(trifluoromethyl)phenyl]-1,2-oxazole-4-carboxamide] | specifically promote the RUNX2 promoter activity | 
selected |  | c1ccc2[nH]c(-c3cscn3)nc2c1 [tiabendazole, 4-(1H-benzimidazol-2-yl)-1,3-thiazole] |  | 
selected |  | CC(C(=O)O)c1ccc(N2Cc3ccccc3C2=O)cc1 (stereo not shown) [indoprofen, 2-[4-(3-oxo-1H-isoindol-2-yl)phenyl]propanoic acid] |  | 
selected | concentration dependency | COc1ccc(/C=C/C(=O)Nc2ccccc2C(=O)O)cc1OC [tranilast, 2-[[(E)-3-(3,4-dimethoxyphenyl)prop-2-enoyl]amino]benzoic acid] | slightly increase the luciferase activity | 
selected | concentration dependency | Cc1c(OCC(F)(F)F)ccnc1C[S+]([O-])c1nc2ccccc2[nH]1 (stereo not shown) [lansoprazole, 2-[[3-methyl-4-(2,2,2-trifluoroethoxy)pyridin-2-yl]methylsulfinyl]-1H-benzimidazole] | specifically promote the RUNX2 promoter activity | induction of expression of the Runx2 gene (Runx2 gene [3]): concentration-dependent activity of inducing the expression of the Runx2 gene; induction of expression of the Runx2 gene (Runx2 gene [4]): concentration-dependent activity of inducing the expression of the Runx2 gene; Runx2 protein expression level (Runx2 protein [5]): expression inducing effect; Runx2 protein expression level (Runx2 protein [6]): expression inducing effect; ALP activity [7]: increase effect; ALP activity [8]: increase effect; induction of the expression of the Runx2 gene (Runx2 gene [9]): expression inducing effect; induction of the expression of the Runx2 gene (Runx2 gene [10]): expression inducing effect; osteogenesis promoting effect (rat femur defect model): marked osteogenesis promoting effect; animals showing good osteogenesis (bone adhesion on soft X-ray) (rat femur defect model; about 10 to 20 times the usual human dose, 12 weeks, N=6): 3/6

Compound | secondary screening: reporter activity of luciferase 1.5 times that of the control [1] | tertiary screening: concentration dependency of the promotion of RUNX2 promoter activity [2] | specificity of RUNX2 promoter promotion versus increase of luciferase activity (luciferase protein) | further results
CCCSc1ccc2nc(NC(=O)OC)[nH]c2c1 [albendazole, methyl n-(6-propylsulfanyl-1H-benzimidazol-2-yl) carbamate] | selected |  |  | 

From US20140343104A1, “OSTEOGENESIS PROMOTER AND USE THEREOF” (National University Corporation Nagoya University, priority 2011, published 2014)
